Experimental data taken from patent publication US20200054271A1, “COMPUTER-BASED LIVER MODEL” (priority 2017, published 2020).

What was measured:
[1] = system: bile flow in the BC network; assay: Bile velocity and apical CF transport by intravital microscopy (IVM) of CF(DA) transport with 3-compartment model; format: in vivo, mouse
Description: (§1) As controls, mice were administered 0.9% saline.
The objective was heated to 37° C.
Quantification of the CF intensity in the hepatocyte cytoplasm and BC from IVM movies was performed using the image analysis software MotionTracking. Following correction for shift, IVM movies contained 16-21 frames per stack, covering 15-20 μm in z. To avoid liver damage from photo-toxicity, IVM movies were acquired with minimum laser intensities resulting in low signal-to-noise ratio. […] Therefore, we used the modified Mean-Shift algorithm to separate the CF fluorescence from the background. The result of the background/foreground discrimination was checked manually. The BC were detected in three steps. First, the image was convolved with Laplacian of Gaussian. Second, pixels with an intensity >2 standard deviations of the local noise were defined as potential BC. The local noise was determined from the local intensity minimums in at least one of 4 discrete directions. Third, along the line of the local maximum intensity direction of a BC, pixels that co-localized with sharp intensity transitions between the cytoplasm and sinusoids were excluded from the BC compartment. For all compartments (cytoplasm, BC and background), the mean intensity was calculated. To avoid mixing of compartments from light scattering of bright objects (BC to cytoplasm and cytoplasm to background), the area within the radius of 2 pixels from the object border was excluded from the calculation.
The transport of CF(DA) from the blood into and through the biliary network was described in a mathematical model that considers 3 hepatic compartments: the blood (s), hepatocytes cytoplasm (c) and bile canaliculi (b) (see FIG. 2F). Dye propagation through these three compartments was modelled for three spatially distinct zones within the liver lobule: The CV, MD and PV zone as defined in FIG. 2C. The different zone geometries of the kite-shaped CV-PV axis were accounted for by introducing respective geometry factors. The model considers that only a fraction of the injected CFDA is delivered to the liver, whereas the rest is cleared by other tissues at rate κclear. The injection of CFDA into the blood circulation is described by Pulse(t). It is defined by the time point of injection start (τ1) and the injection duration (τ2) assuming that CFDA is injected with constant rate in time t>τ1 and <τ1+τ2. Both τ1 and τ2 were fitted by the model with boundary intervals 40-80 sec (τ1) and 20-60 sec (τ2). In the liver, the model considers that CFDA is taken up from the blood with a permeability coefficient Perm=3 sec^−1 (according to (Breeuwer et al., 1995), considering a mammalian plasma membrane thickness of 4 nm), converted into CF by cytoplasmic esterases with cleavage rate κcleav and secreted by apical transporters with transporter activity κpump. To account for the spatial heterogeneity of esterase and transporter levels within the CV-PV axis, the amounts of both esterases (qi) and apical transporters (q1i) were determined for each zone (i=cv, md, pv). The model further considers passive back flux of CF from the BC into the hepatocyte cytoplasm at rate κli. The bile canaliculi compartment of the three zones is connected, occurs unidirectional and sequential from the CV to the MD with transport rate
Bile flow velocity vi at the interfaces of the lobule zones was estimated from the volume flux rates
considering the size of the zone volumes V and zone boundaries Ai (i=cv, md, pv) as well as a CV-PV axis distance L of 229 μm: […]

[2] = system: bile canaliculi (BC) network; assay: BC network geometry (BC radius) from 3D reconstruction of CD13-stained fixed liver tissue sections; format: in vivo, mouse
Description: as §1
All steps were performed at room temperature.
Fixed tissue was imaged with a Zeiss laser scanning microscope 780 NLO using a 63×1.3 numerical aperture (NA) glycerol immersion objective (Zeiss), a Chameleon Ti-Sapphire 2-photon laser (780 nm), 488 and 561 laser lines and Gallium arsenide phosphide (GaAsp) detectors.
3D reconstructions of the BC network were performed on high-resolution IF image stacks of fixed liver tissue stained for the apical marker CD13 (voxel size: 0.28×0.28×0.3 μm, 70-80 μm in depth). A tile of 2×1 image stacks was stitched to cover an entire CV-PV axis. Images were processed, analyzed and reconstructed using the software MotionTracking as described in (Morales-Navarrete et al., 2015). In brief, images were segmented using a local thresholding algorithm (maximum entropy), segmented objects were corrected for artefacts using standard morphological operations (opening/closing) and the triangulation mesh of the segmented surfaces was generated by the cube marching algorithm. The active mesh was tuned to align the triangle mesh vertexes to the maximum gradient of fluorescence intensity in the original image. A representation of the skeletonized image was generated using a 3D graph describing the geometrical and topological features of the BC network. For the spatial analysis of BC radius, porosity and network density, the CV-PV axis was computationally divided into 20 equidistant zones based on the distance dof each position x from the CV (dCV) and PV (dPV):
Then, the average radius and porosity was determined per zone. For the radius, the minimal distance of each node of the central line of the BC network was quantified in the xy-plane. For the BC network density, the network length per tissue volume was calculated. For the tissue porosity, […]

[3] = system: phosphorylated myosin light chain (pMLC); assay: Western blot of phosphorylated myosin light chain in liver tissue of treated mice; format: in vivo; conditions: 20 mg/kg Fasudil for 1.5 h, mouse liver
Description: As controls, mice were administered 0.9% saline. […] Cell debris were removed by centrifugation for 10 min at 12 000×g at 4° C. and protein was denatured at 95° C. in presence of 100 mM dithiothreitol (DTT). A total of 10 μg protein was separated by sodium dodecyl sulfate polyacrylamide gel electrophoresis, and transferred onto a nitrocellulose membrane. Membranes were blocked and incubated with primary antibodies against glyceraldehyde 3-phosphate dehydrogenase (GAPDH, 1:2000) or phospho-myosin light chain (pMLC, 1:500) and HRP-conjugated secondary antibodies (1:10000) in 5% dry-milk, 10 mM Tris-HCl pH 8.0, 200 mM NaCl, 0.1% Tween20. Protein was detected using the enhanced chemiluminescence (ECL) detection kit (GE Healthcare, Buckinghamshire, UK) and chemiluminescence films (GE Healthcare, Buckinghamshire, UK) according to manufacturer's instructions. Plasma membrane contractility is determined by the cortical acto-myosin system ([…] et al., 2016; Tsukada and Phillips, 1993). […] Consequently, inhibition of acto-myosin contractility should affect biliary fluid dynamics. […] We next analyzed the BC network geometry on fixed liver tissue sections and found a dilation of BC in Fasudil-treated mice (FIG. 5B).

[4] = from the literature; cited from earlier work
[5] = according to Breeuwer et al., 1995, considering a plasma membrane thickness of 4 nm; cited from earlier work
[6] = mouse, in vivo, iv
Description: Mouse anaesthesia was induced with 3-4% isoflurane/0.3% oxygen and maintained by i.p. injection of ketamine/xylazine throughout the experiment. Mice received 20 U of heparin dissolved in 0.9% (w/v) NaCl by i.p. injection to prevent ischemia of the liver during the course of imaging. To visualize hepatocyte nuclei, Hoechst 33258 dissolved in 0.9% (w/v) NaCl was administered retro-orbitally at a dose of 2 mg/kg and in a total volume of 50 μl. To expose the liver for imaging, the abdominal fur was removed using an electric shaver and a small transversal incision of 1 cm was made at the height of the sternum to expose the left lateral liver lobe using a surgical scissor and cauterizer. The mouse was positioned on the stage of an IX81 inverted confocal microscope equipped with a Fluoview 1000 scanning head (Olympus America) and a heat-adjustable UPLSAPO30X, 30×1.05 NA silicon oil objective (Olympus). The objective was heated to 37° C. To avoid compression of the liver lobe and to stabilize the tissue, the stage was designed with a small hole in the center into which the left lateral lobe was carefully placed. The residual volume of the hole was filled with a water based and transparent 1% carbomer gel (0.3 M Sorbitol, 1% (w/v) Carbomer 940, polymerized by addition of triethanolamine and adjusted to pH 7) to immobilize the organ and prevent the organ from drying out. The bottom of the hole was designed with a coverslide through which the organ was accessible for imaging. The animal body temperature was kept at 37° C. using a red lamp. Prior to imaging start, 18 mg/kg of 70 kDa Rhodaminedextran or 20 μl of Qtracker 655 vascular label dissolved in 0.9% (w/v) NaCl was injected retro-orbitally to identify the lobule orientation from the vascular flow pattern. To monitor the flux of CFDA in the liver, CFDA, dissolved in dimethyl sulfoxide (DMSO), was injected retro-orbitally at a dose of 0.2 mg/kg in a total volume of 50 μl. CFDA injection was performed slowly (approx. 30 sec) to avoid hydrodynamic effects and performed at 1 min after image acquisition start. […]

[7] = APAP 150 mg/kg i.p., 2 h, IVM of CF(DA) transport

Compound: O=S(=O)(c1cccc2cnccc12)N1CCCNCC1 [Fasudil]
- reduction of bile velocity across the CV-PV axis as compared to control mice ([1]; Fasudil 20 mg/kg i.p., 1.5 h, IVM of CF(DA) transport): 50-58%
- apical CF transport ([1]; Fasudil-treated mice, IVM): reduction
- apical secretion fluxes summed over the entire CV-PV axis, Jt ([1]; Fasudil-treated, t=500 sec): 0.0390 arbitrary intensity units per time
- apical secretion flux of CF, CV zone ([1]; Fasudil-treated, t=500 sec, CV zone): 0.0019 arbitrary intensity units per time
- apical secretion flux of CF, MD zone ([1]; Fasudil-treated, t=500 sec, MD zone): 0.0312 arbitrary intensity units per time
- apical secretion flux of CF, PV zone ([1]; Fasudil-treated, t=500 sec, PV zone): 0.0059 arbitrary intensity units per time
- BC radius increase as compared to control mice, MD zone ([2]; Fasudil 20 mg/kg i.p., 1.5 h, MD zone, pvalue<0.0001): up to 12%
- BC radius increase as compared to control mice, PV zone ([2]; Fasudil 20 mg/kg i.p., 1.5 h, PV zone, pvalue<0.001): ≤ 7%
- extrapolated BC radius at x=L, at(L) ([2]; Fasudil-treated mice, apparent radius at portal outlet): 1.422 μm
- phosphorylated myosin light chain (pMLC) protein levels [3]: reduction

Compound: CC(=O)Nc1ccc(O)cc1 [APAP, acetaminophen]
- bile velocity in the peri-portal zone [1, 7]: remained almost unaffected
- measured increase in bile velocity in the CV and MD zones [1, 7]: 1.4-1.6 fold
- effects on osmolite secretion ([1]; APAP treatment): marginal
- dilation of BC, CV zone ([2]; APAP 150 mg/kg i.p., 2 h, immersion fixed, CV zone, pvalue<0.01): up to 20%
- dilation of BC, MD zone ([2]; APAP 150 mg/kg i.p., 2 h, immersion fixed, MD zone, pvalue<0.0001): ≤ 18%
- maximum reported sub-toxic dose [4]: 150 mg/kg

Compound: CC(=O)Oc1ccc2c(c1)Oc1cc(OC(C)=O)ccc1C21OC(=O)c2ccc(C(=O)O)cc21 [CFDA, 6-carboxyfluorecein-diacetate]
- permeability coefficient Perm for uptake from the blood [5]: 3 s⁻¹
- time until detectable in the hepatocyte cytoplasm [6]: within seconds

Compound: O=C(O)c1ccc2c(c1)C1(OC2=O)c2ccc(O)cc2Oc2cc(O)ccc21 [CF, 6-carboxyfluorescein]
- time until cleared from the system [6]: ~40 min
- time until visible in the BC network [6]: 3 to 5 min
